For one assay, the target named is T1, Kv1.3 potassium channel (Homo sapiens, UniProt P22001).
T1 construct: expressed in transfected cells
In words: Kv1.3 potassium channel blocker activity, automated whole-cell patch clamp (Patchliner). It counts as cell-based. The conditions noted are these: CHO-K1 cells stably expressing Kv1.3; whole cell current inhibition; read-out: Kv1.3_IC50. The method in brief:
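CHO-K1 cells stably expressing Kv1.3, automated whole-cell patch clamp. Currents evoked by 100 ms steps from −90 mV holding to +40 mV at 0.1 Hz, sampled at 10 kHz unfiltered, P/4 leak subtraction; peak current inhibition measured, compound incubation ≤10 s between pulse trains.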
A general note: In patch-clamp work, channel activity is measured electrically.

The target of the next assay is hERG channel (Homo sapiens, UniProt Q12809). Description: hERG electrophysiology, automated whole-cell patch clamp (Patchliner).
Sequence of hERG channel (Q12809 whole entry): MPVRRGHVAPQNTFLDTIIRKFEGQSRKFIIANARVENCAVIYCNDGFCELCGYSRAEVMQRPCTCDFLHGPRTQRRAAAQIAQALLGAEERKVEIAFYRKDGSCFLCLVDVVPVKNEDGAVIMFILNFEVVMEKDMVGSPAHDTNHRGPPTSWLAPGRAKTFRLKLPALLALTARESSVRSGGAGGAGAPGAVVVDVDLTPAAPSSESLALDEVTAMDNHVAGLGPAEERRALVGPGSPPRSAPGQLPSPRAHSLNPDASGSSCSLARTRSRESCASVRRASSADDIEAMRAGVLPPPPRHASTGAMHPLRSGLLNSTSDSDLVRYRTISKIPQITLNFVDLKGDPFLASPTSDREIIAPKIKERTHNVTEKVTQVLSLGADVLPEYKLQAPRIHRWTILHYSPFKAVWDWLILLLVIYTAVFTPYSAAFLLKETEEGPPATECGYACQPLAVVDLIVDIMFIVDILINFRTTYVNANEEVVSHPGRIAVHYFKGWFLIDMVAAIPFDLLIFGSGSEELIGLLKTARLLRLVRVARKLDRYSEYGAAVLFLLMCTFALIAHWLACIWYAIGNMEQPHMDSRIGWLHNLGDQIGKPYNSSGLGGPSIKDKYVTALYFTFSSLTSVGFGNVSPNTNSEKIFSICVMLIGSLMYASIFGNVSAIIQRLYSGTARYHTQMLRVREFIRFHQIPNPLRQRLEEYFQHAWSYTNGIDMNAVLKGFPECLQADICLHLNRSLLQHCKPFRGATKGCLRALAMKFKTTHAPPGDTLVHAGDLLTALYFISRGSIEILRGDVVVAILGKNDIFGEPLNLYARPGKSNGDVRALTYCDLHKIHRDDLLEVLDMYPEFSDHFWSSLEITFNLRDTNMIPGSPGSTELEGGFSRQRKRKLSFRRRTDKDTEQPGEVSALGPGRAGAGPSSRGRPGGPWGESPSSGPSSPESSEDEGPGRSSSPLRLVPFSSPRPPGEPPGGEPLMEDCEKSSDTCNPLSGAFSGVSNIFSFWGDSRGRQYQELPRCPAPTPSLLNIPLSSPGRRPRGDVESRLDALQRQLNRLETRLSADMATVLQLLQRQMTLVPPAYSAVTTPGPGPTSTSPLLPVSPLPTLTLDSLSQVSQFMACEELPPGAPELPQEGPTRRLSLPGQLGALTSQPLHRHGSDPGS

T1 sequence (P22001 whole entry): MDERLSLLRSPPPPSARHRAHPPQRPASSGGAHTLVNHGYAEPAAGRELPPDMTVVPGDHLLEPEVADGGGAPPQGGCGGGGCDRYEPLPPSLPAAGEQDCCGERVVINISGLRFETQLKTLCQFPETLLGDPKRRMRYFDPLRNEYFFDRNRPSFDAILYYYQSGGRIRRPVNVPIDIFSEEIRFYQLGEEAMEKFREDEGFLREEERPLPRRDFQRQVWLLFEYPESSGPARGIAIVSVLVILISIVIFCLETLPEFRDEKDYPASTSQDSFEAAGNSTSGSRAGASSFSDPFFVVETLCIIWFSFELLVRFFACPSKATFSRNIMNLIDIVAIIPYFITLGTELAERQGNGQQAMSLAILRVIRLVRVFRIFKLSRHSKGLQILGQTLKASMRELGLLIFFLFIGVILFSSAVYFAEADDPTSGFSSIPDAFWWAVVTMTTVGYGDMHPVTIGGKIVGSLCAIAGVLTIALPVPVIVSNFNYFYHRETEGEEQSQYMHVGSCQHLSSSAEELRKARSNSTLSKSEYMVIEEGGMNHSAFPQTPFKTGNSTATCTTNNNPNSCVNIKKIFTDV

For `N[C@@H](c1cc(Cl)c(Cl)cc1O)C1CCN(C(=O)[C@@H]2CNCCO2)CC1` [Compound 99, (4-((R)-amino(4,5-dichloro-2-hydroxyphenyl)methyl)piperidin-1-yl)((S)-morpholin-2-yl)methanone], the IC50 (usually the point on the concentration scale where inhibition reaches its midpoint) on Kv1.3 potassium channel is less than 0.5 µM; on hERG channel it was more than 30 µM.
Consider `NC(c1cc(Cl)c(Cl)cc1O)C1(F)CCNCC1` (centres unmarked) [Compound 59, 2-[amino(4-fluoropiperidin-4-yl)methyl]-4,5-dichlorophenol Trifluoroacetic Acid], for which the values for the 50% inhibitory concentration (IC50) at Kv1.3 potassium channel and at hERG channel were less than 10 µM and less than 30 µM, respectively.
Regarding `Cc1cc(O)c([C@H](N)C2CCN(C(=O)c3ccc(=O)[nH]c3)CC2)cc1Cl` [Compound 228, 5-[4-[(R)-amino(5-chloro-2-hydroxy-4-methylphenyl)methyl]piperidine-1-carbonyl]-1H-pyridin-2-one], the results for the concentration for half-maximal inhibition (IC50) at Kv1.3 potassium channel and against hERG channel were less than 0.5 µM and more than 30 µM, respectively.
The matching figures for `Cc1cc(O)c([C@H](N)C2CCN(C(=O)c3c[nH]c(=O)c(C)c3)CC2)cc1Cl` [Compound 262, 5-[4-[(R)-amino (5-chloro-2-hydroxy-4-methylphenyl)methyl]piperidine-1-carbonyl]-3-methyl-1H-pyridin-2-one trifluoroacetic acid]: less than 0.5 µM and more than 30 µM.
On to `CC(O)(CO)C(=O)N1CCC([C@@H](N)c2cc(Cl)c(Cl)cc2O)CC1` (stereo partly drawn) [Compound 201, 1-[4-[(R)-amino(4,5-dichloro-2-hydroxyphenyl)methyl]piperidin-1-yl]-2,3-dihydroxy-2-methylpropan-1-one Trifluoroacetic Acid], for which the IC50 was less than 10 µM at Kv1.3 potassium channel and more than 30 µM on hERG channel.
`N[C@@H](c1cc(Cl)c(Cl)cc1O)C1CCN(C(=O)[C@@H]2OCC[C@@H]2O)CC1` [Compound 260, (2R,3S)-2-[4-[(R)-amino(4,5-dichloro-2-hydroxyphenyl)methyl]piperidine-1-carbonyl]oxolan-3-ol Trifluoroacetic Acid]: the IC50 was less than 0.5 µM on Kv1.3 potassium channel and more than 30 µM at hERG channel.
For `N[C@@H](c1cc(Cl)c(Cl)cc1O)C1CCN(S(=O)(=O)C2CCNC2)CC1` (stereo partly drawn) [Compound 110, 2-[(R)-amino[1-(pyrrolidine-3-sulfonyl)piperidin-4-yl]methyl]-4,5-dichlorophenol] the same measures were less than 0.5 µM and more than 30 µM.
With `NC(c1c(O)cc(Cl)c(Cl)c1Cl)C1CCNCC1` (centres unmarked) [Compound 37, 2-[amino(piperidin-4-yl)methyl]-3,4,5-trichlorophenol Trifluoroacetic Acid], the IC50 at Kv1.3 potassium channel is less than 10 µM; on hERG channel it was more than 30 µM.
The matching figures for `C[C@@]1(C(=O)N2CCC([C@@H](N)c3cc(Cl)c(Cl)cc3O)CC2)CCCN1` [Compound 98, (4-((R)-amino(4,5-dichloro-2-hydroxyphenyl)methyl)piperidin-1-yl)((S)-2-methylpyrrolidin-2-yl)methanone]: less than 0.5 µM and more than 30 µM.
Regarding `NC(=O)C(=O)N1CCC([C@@H](N)c2cc(Cl)c(Cl)cc2O)CC1` [Compound 206, 2-[4-[(R)-amino(4,5-dichloro-2-hydroxyphenyl)methyl]piperidin-1-yl]-2-oxoacetamide trifluoroacetic acid], the 50% inhibitory concentration (IC50) was less than 0.5 µM on Kv1.3 potassium channel and more than 30 µM on hERG channel.
The matching figures for `Nc1[nH]ncc1C(=O)N1CCC([C@@H](N)c2cc(Cl)c(Cl)cc2O)CC1` [Compound 211, 2-[(R)-amino[1-(5-amino-1H-pyrazole-4-carbonyl)piperidin-4-yl]methyl]-4,5-dichlorophenol trifluoroacetic acid]: less than 0.5 µM and more than 30 µM.
Consider `Cc1cc(O)c([C@H](N)C2CCN(S(=O)(=O)C3CCNC3)CC2)cc1Cl` (stereo partly drawn) [Compound 236, 2-[(R)-amino[1-(pyrrolidine-3-sulfonyl)piperidin-4-yl]methyl]-4-chloro-5-methylphenol Trifluoroacetic Acid], for which the IC50 was less than 0.5 µM at Kv1.3 potassium channel and more than 30 µM on hERG channel.
For `N[C@@H](c1cc(Cl)c(Cl)cc1O)C1CCN(C(=O)c2cnc(=O)[nH]c2)CC1` [Compound 277, 5-[4-[(R)-amino(4,5-dichloro-2-hydroxyphenyl)methyl]piperidine-1-carbonyl]-1H-pyrimidin-2-one trifluoroacetic acid] the same measures were less than 0.5 µM and more than 30 µM.
Turning to `Cc1cc(O)c([C@H](N)C2CCN(C(=O)[C@@H]3OCC[C@@H]3O)CC2)cc1Cl` [Compound 335, (2R,3S)-2-[4-[(R)-amino(5-chloro-2-hydroxy-4-methylphenyl)methyl]piperidine-1-carbonyl]oxolan-3-ol trifluoroacetic acid], the figures for the IC50 at Kv1.3 potassium channel and at hERG channel were less than 0.5 µM and more than 30 µM, respectively.
For `Cn1ccc(N2CCC([C@@H](N)c3cc(Cl)c(Cl)cc3O)CC2)cc1=O` [Compound 297, 4-[4-[(R)-amino(4,5-dichloro-2-hydroxyphenyl)methyl]piperidin-1-yl]-1-methylpyridin-2-one], the results for the IC50 at Kv1.3 potassium channel and at hERG channel were less than 0.5 µM and less than 30 µM, respectively.
For the compound `N[C@@H](c1cc(Cl)c(Cl)cc1O)C1CCN(C(=O)COC2COC2)CC1` [Compound 192, 1-[4-[(R)-amino(4,5-dichloro-2-hydroxyphenyl)methyl]piperidin-1-yl]-2-(oxetan-3-yloxy)ethan-1-one], the IC50 on Kv1.3 potassium channel is less than 0.5 µM; against hERG channel, more than 30 µM.
For `N[C@@H](c1cc(Cl)c(Cl)cc1O)C1CCN(C(=O)[C@H](O)CO)CC1` (single isomer, unassigned) [Compound 119] the same measures were less than 0.5 µM and more than 30 µM.
On to `CC(=O)N1CCC(C(O)c2cc(Cl)c(Cl)cc2O)CC1` (centres unmarked) [Compound 4, 1-(4-((4,5-dichloro-2-hydroxyphenyl)(hydroxy)methyl)piperidin-1-yl)ethanone], for which the IC50 at Kv1.3 potassium channel is less than 10 µM; against hERG channel it was more than 30 µM.
On to `N[C@@H](c1cc(Cl)c(Cl)cc1O)C1CCN(C(=O)N2CCNCC2)CC1` [Compound 141, 2-[(R)-amino[1-(piperazine-1-carbonyl)piperidin-4-yl]methyl]-4,5-dichlorophenol Trifluoroacetic Acid], for which the IC50 was less than 0.5 µM on Kv1.3 potassium channel and more than 30 µM at hERG channel.
On to `N[C@@H](c1cc(Cl)c(Cl)cc1O)C1CCN(C(=O)C2CNC(=O)NC2)CC1` [Compound 275, 5-[4-[(R)-amino(4,5-dichloro-2-hydroxyphenyl)methyl]piperidine-1-carbonyl]-1,3-diazinan-2-one Trifluoroacetic Acid], for which the IC50 at Kv1.3 potassium channel was less than 0.5 µM; on hERG channel it was more than 30 µM.
For `N[C@@H](c1cc(Cl)c(C(F)(F)F)cc1O)C1CCN(C(=O)[C@H](O)CO)CC1` [Compound 284, (2R)-1-[4-[(R)-amino[5-chloro-2-hydroxy-4-(trifluoromethyl)phenyl]methyl]piperidin-1-yl]-2,3-dihydroxypropan-1-one], the results for the IC50 at Kv1.3 potassium channel and on hERG channel were less than 10 µM and more than 30 µM, respectively.
For `COc1ccc(C(=O)N2CCC([C@@H](N)c3cc(Cl)c(C)cc3O)CC2)cn1` [Compound 243, 2-[(R)-amino[1-(6-methoxypyridine-3-carbonyl)piperidin-4-yl]methyl]-4-chloro-5-methylphenol trifluoroacetic acid] the same measures were less than 0.5 µM and less than 30 µM.
